Values after ≈ are worked out from the molar mass of the structure shown. Like-named read-outs stand apart in the source and are kept apart here.
What was measured:
[1] = tested on: HepG2 hepatoma cells; experiment: Anti-tumor activity in vitro, MTT method, HepG2; format: cell-based, human; settings: for IC50 compared with Icaritin, HepG2 72 h: HepG2, 72 h after administration
Protocol: (§1) The effects of Icaritin and its derivatives on the activities of HepG2 and SMMC7721 hepatoma cells were investigated by a MTT method. […] After reaction for 48, 7 2 h, each well was added with 20 μL 5 mg/mL, of MTT solution, and incubated in a cell incubator for 3-4 h. Then the liquid in the well plates was sucked to discard. Each well was added with 150 μL of dimethyl sulfoxide (DMSO), and shaken on an enzyme-labeled instrument for 30 s at ambient temperature so that the Formazan crystals were dissolved sufficiently. The absorbance value A of each well at 570 nm was detected by the enzyme-labeled instrument, and the experiment was repeated for 3 times.

[2] = tested on: SMMC7721 hepatoma cells; experiment: Anti-tumor activity in vitro, MTT method, SMMC7721; format: cell-based, human
Protocol: as §1

[3] = Determination of solubility (HPLC); format: physicochemical; settings: for solubility: 37 °C, thermodynamic from solid
Protocol: About 1.325 mg of Icaritin and the synthesized derivative were weighed and dissolved in 1.5 mL methanol respectively, then diluted with methanol into solutions of 10, 20, 50, 100, 150, 200, 500 μg/mL, and filtered over an organic-system filter head of 0.45 μm into sample bottles, obtaining the samples for test. Four parts of Icaritin and the synthesized derivative were weighed respectively, 1.00 mg for each part, and placed into 1.5 mL EP tubes, and 1 mL of water, normal saline, PBS, and 0.1% Tween 80 were respectively added thereto. The obtained solutions were ultrasonicated for 1 h, placed in a water bath at 37° C. overnight, and centrifuged at 10000 r/min for 3 min to collect supernatants. The supernatants were taken into sample bottles and detected by HPLC. The experiments were conducted in parallel for three times. The detection of HPLC is conducted under conditions of a chromatographic column of waters Symmetry C18, a mobile phase of a solution of methanol and water with a ratio of 80:20, a flow rate of 1.0 mL/min, a column temperature of 30° C., a detection wavelength of 210 nm, a run time of 30 min, and a sample load of 20 μL.

[4] = Homo sapiens, HepG2, 48 h, MTT, read-out: IC50 HepG2 48 h
[5] = Homo sapiens, HepG2, 72 h, MTT, read-out: IC50 HepG2 72 h
[6] = Homo sapiens, SMMC-7721, SMMC7721, 48 h, MTT, read-out: IC50 SMMC7721 48 h
[7] = Homo sapiens, SMMC-7721, SMMC7721, 72 h, MTT, read-out: IC50 SMMC7721 72 h
[8] = aqueous with cosolvent or surfactant or cyclodextrin
[9] = HepG2, 48 h, MTT, read-out: IC50 HepG2 48 h
[10] = HepG2, 72 h, MTT, read-out: IC50 HepG2 72 h
[11] = SMMC7721, 48 h, MTT, read-out: IC50 SMMC7721 48 h
[12] = SMMC7721, 72 h, MTT, read-out: IC50 SMMC7721 72 h

SMILES	IC50 [1, 4]	IC50 [1, 5]	IC50 [2, 6]	IC50 [2, 7]	Solubility, Normal Saline [3]	solubility ([3]; aqueous buffer)	solubility [3, 8]	solubility ([3]; water)	Solubility, 0.1% Tween 80 [3]	Solubility, PBS [3]	Solubility, Water [3]	IC50 [1, 9]	IC50 [1, 10]	IC50 [2, 11]	IC50 [2, 12]	solubility compared with that of the bulk drug (Icaritin) [3]	further results
COc1ccc(-c2oc3c(CC=C(C)C)c(O)cc(O)c3c(=O)c2OC(=O)CCC(=O)OCCOCCOCCOCCOCc2cn([C@H]3O[C@@H](CO)[C@H](O)[C@@H](O)[C@@H]3O)nn2)cc1 [Compound 50]	24.1 ± 3.06 µM	25.3 ± 2.11 µM	> 100 µM	46.5 ± 3.43 µM	Insoluble	4.53 ± 0.347 µg/mL (≈ 5.11 µM)	4.64 ± 1.27 µg/mL (≈ 5.22 µM)	4.55 ± 0.324 µg/mL (≈ 5.13 µM)									
COc1ccc(-c2oc3c(CC=C(C)C)c(O)cc(O)c3c(=O)c2OC(=O)CCC(=O)OCCOCc2cn(C3O[C@H](CO)[C@@H](O)[C@H](O)[C@H]3O)nn2)cc1 (stereo partly shown) [Compound 71]					Insoluble				Insoluble	Insoluble	Insoluble						IC50 ([1]; Homo sapiens, HepG2, 48 h, read-out: IC50 HepG2 48 h): > 100 µM; IC50 ([1]; Homo sapiens, HepG2, 72 h, read-out: IC50 HepG2 72 h): > 100 µM; IC50 ([2]; Homo sapiens, SMMC-7721, 48 h, read-out: IC50 SMMC7721 48 h): > 100 µM; IC50 ([2]; Homo sapiens, SMMC-7721, 72 h, read-out: IC50 SMMC7721 72 h): 29.7 ± 1.23 µM
COc1ccc(-c2oc3c(CC=C(C)C)c(O)cc(O)c3c(=O)c2OC(=O)CCC(=O)OCCOCc2cn(CCOCCOC3OC(CO)C(O)C(O)C3O)nn2)cc1 (stereo not shown) [Compound 73]					Insoluble				Insoluble	Insoluble	Insoluble	43.2 ± 1.21 µM	36.8 ± 0.65 µM	> 100 µM	37.2 ± 1.36 µM		
COc1ccc(-c2oc3c(CC=C(C)C)c(O)cc(O)c3c(=O)c2OC(=O)CCC(=O)OCc2cn([C@H]3O[C@@H](CO)[C@H](O)[C@@H](O)[C@@H]3O)nn2)cc1 [Compound 35]	> 100 µM	> 100 µM	> 100 µM	> 100 µM		12 ± 1.02 µg/mL (≈ 16.8 µM)	12.1 ± 1.03 µg/mL (≈ 17 µM)	12 ± 1.23 µg/mL (≈ 16.8 µM)								improved effectively	solubility ([3]; saline or isotonic): 12.3 ± 1.31 µg/mL (≈ 17.3 µM)
COc1ccc(-c2oc3c(CC=C(C)C)c(O)cc(O)c3c(=O)c2OC(=O)CCC(=O)OCCCCOCc2cn(CCOCCOC3OC(CO)C(O)C(O)C3O)nn2)cc1 (stereo not shown) [Compound 89]					Insoluble				Insoluble	Insoluble	Insoluble	> 100 µM	> 100 µM	> 100 µM	35.6 ± 1.36 µM		
COc1ccc(-c2oc3c(CC=C(C)C)c(O)cc(O)c3c(=O)c2OC(=O)CCC(=O)OCc2cn(CCOC3OC(CO)C(O)C(O)C3O)nn2)cc1 (stereo not shown) [Compound 39]					13.828 ± 1.123 µg/mL (≈ 18.3 µM)				13.819 ± 1.323 µg/mL (≈ 18.3 µM)	13.825 ± 0.937 µg/mL (≈ 18.3 µM)	13.871 ± 1.031 µg/mL (≈ 18.4 µM)	> 100 µM	5.56 ± 0.6 µM	> 100 µM	6.65 ± 1.29 µM	improved effectively	IC50 compared with Icaritin, HepG2 72 h [1]: less than that of Icaritin; IC50 compared with Icaritin, SMMC7721 72 h ([2]; SMMC7721, 72 h after administration): less than that of Icaritin
COc1ccc(-c2oc3c(CC=C(C)C)c(O)cc(O)c3c(=O)c2OC(=O)CCC(=O)OCCOCCOCc2cn(CCO[C@@H]3O[C@H](CO)[C@@H](O)[C@H](O)[C@H]3O)nn2)cc1 [Compound 65]	> 100 µM	37.74 ± 0.2 µM	> 100 µM	> 100 µM	Insoluble				Insoluble	Insoluble	Insoluble						
COc1ccc(-c2oc3c(CC=C(C)C)c(O)cc(O)c3c(=O)c2OC(=O)CCC(=O)OCc2cn(CCOCCO[C@H]3O[C@@H](CO)[C@H](O)[C@@H](O)[C@@H]3O)nn2)cc1 [Compound 44]	> 100 µM	10.1 ± 0.32 µM	> 100 µM	> 100 µM		11 ± 1.04 µg/mL (≈ 13.8 µM)	11.2 ± 1.09 µg/mL (≈ 14 µM)	11.3 ± 0.831 µg/mL (≈ 14.1 µM)								improved effectively	IC50 compared with Icaritin, HepG2 72 h [1]: less than that of Icaritin; solubility ([3]; saline or isotonic): 11 ± 1.03 µg/mL (≈ 13.8 µM)
